Source: patent EP0194793A2, “9-Acyl tylosin derivatives” (Omura, Satoshi, priority 1985, dated 1986)
In brackets after ≈: the same amount, converted by molar mass. Read-outs that look alike come from different tables or passages of the source.

How the values were obtained:
[1] = tested on: Escherichia coli KB213 (NIHJ); assay: Minimum inhibitory concentration, nutrient agar dilution; type: cell-based; settings: 37°C, 18-20 hours; for MIC: read-out: Minimum Inhibitory Concentrations
Experimental: (§1) Experiment 1: Minimum Inhibitory Concentration (µg/ml)
(§2) The tylosin derivatives obtained in Examples 1 through 9 were tested for their minimum inhibitory concentrations against gram-positive and gram-negative bacteria. The tests were conducted in conventional manner by inoculating varying concentrations of the test sample on a nutrient agar test medium and incubating at 37°C for 18-20 hours. The concentrations of the test samples inhibiting the bacteria growth were measured in µg per ml as a minimum inhibitory concentration.

[2] = tested on: Staphylococcus aureus KB-210 (ATC 65380); assay: as above; type: cell-based; settings: for MIC: read-out: Minimum Inhibitory Concentrations
Experimental: as §1, §2

[3] = tested on: Micrococcus luteus KB212 (ATCC 9341); assay: as above; type: cell-based
Experimental: as §1, §2

[4] = tested on: Bacillus subtilis KB-143(IFO 3001); assay: as above; type: cell-based
Experimental: as §1, §2

[5] = tested on: Klebsiella pneumoniae KB13(PCI 602); assay: as above; type: cell-based; settings: for MIC: read-out: Minimum Inhibitory Concentrations
Experimental: as §1, §2

S. pyrogenes C203 = assay: In vivo activity in infected mice
Experimental: Experiment 2: In vivo Activity
The compounds obtained in Examples 2 and 4 were separately administered subcutaneously or orally to mice infected with S. pyrogenes C203. The in vivo activity was measured as ED50 (mg/kg x 2).

[6] = Staphylococcus aureus KB-210 (ATC 65380), nutrient agar, 37°C, 18-20 hours
[7] = Micrococcus luteus KB212 (ATCC 9341), nutrient agar, 37°C, 18-20 hours
[8] = Bacillus subtilis KB-143(IFO 3001), nutrient agar, 37°C, 18-20 hours
[9] = Klebsiella pneumoniae KB13(PCI 602), nutrient agar, 37°C, 18-20 hours

Row | Compound | Minimum Inhibitory Concentrations [1] [µg/mL] | Minimum Inhibitory Concentrations [2, 6] [µg/mL] | Minimum Inhibitory Concentrations [3, 7] [µg/mL] | Minimum Inhibitory Concentrations [4, 8] [µg/mL] | Minimum Inhibitory Concentrations [5, 9] [µg/mL] | also measured
1 | 9-0-Benzoyl-9-dihydrotylosin [Example 4] | >100 | 0.78 | <0.1 | 0.2 | >100 | 
2 | 9-0-Propionyl-9-dihydrotylosin [Example 2] | >100 | 0.78 | <0.1 | 0.2 | >100 | ED50 (S. pyrogenes C203; Oral, mice infected with S. pyrogenes C203): 12.5 mg/kg x 2; ED50 (S. pyrogenes C203; Subcutaneous, mice infected with S. pyrogenes C203): 2.5 mg/kg x 2
3 | CC[C@H]1OC(=O)C[C@@H](O)[C@H](C)[C@@H](O[C@@H]2O[C@H](C)[C@@H](O[C@H]3C[C@@](C)(O)[C@@H](O)[C@H](C)O3)[C@H](N(C)C)[C@H]2O)[C@@H](CC=O)C[C@@H](C)C(=O)/C=C/C(C)=C/[C@@H]1CO[C@@H]1O[C@H](C)[C@@H](O)[C@@H](OC)[C@H]1OC [Tyl, Tylosin] |  |  |  |  |  | ED50 (S. pyrogenes C203; Mus musculus, po): 50 mg/kg; ED50 (S. pyrogenes C203; Mus musculus, sc): 1 mg/kg; MIC [1]: > 100 mg/L; MIC ([2]; Staphylococcus aureus): 1.56 mg/L (≈ 1.7 µM); MIC ([3]; Micrococcus luteus, ATCC9341, read-out: Minimum Inhibitory Concentrations): 0.2 mg/L (≈ 0.218 µM); MIC ([4]; Bacillus subtilis, IFO3001, read-out: Minimum Inhibitory Concentrations): 0.78 mg/L (≈ 0.851 µM); MIC ([5]; Klebsiella pneumoniae): > 100 mg/L
4 | CCC1OC(=O)CC(O)C(C)C(OC2OC(C)C(O)C(N(C)C)C2O)C(CC=O)CC(C)C(=O)C=CC(C)=CC1COC1OC(C)C(O)C(OC)C1OC (stereo not drawn) [Detyl, Demycarosyltylosin, reference compound] |  |  |  |  |  | MIC [1]: > 100 mg/L; MIC [2, 6]: 3.12 mg/L (≈ 4.04 µM); MIC ([3]; ATCC9341, Micrococcus luteus KB212 (ATCC 9341), nutrient agar, 37°C, 18-20 hours, read-out: Minimum Inhibitory Concentrations): 0.2 mg/L (≈ 0.259 µM); MIC ([4]; IFO3001, Bacillus subtilis KB-143(IFO 3001), nutrient agar, 37°C, 18-20 hours, read-out: Minimum Inhibitory Concentrations): 3.12 mg/L (≈ 4.04 µM); MIC [5, 9]: 100 mg/L (≈ 130 µM)
5 | 9-0-Butyryl-9-dihydrodemycarosyltylosin [Example 7] | >50 | 1.56 | 0.2 | 1.56 | >50 | 
6 | 9-0-Acetyl-9-dihydrodemycarosyltylosin [Example 5] | >50 | 1.56 | 0.2 | 1.56 | >50 | 
7 | 9-0-Acetyl-9-dihydrotylosin [Example 1] | >100 | 1.56 | <0.1 | 0.2 | 100 | 
8 | 9-0-Propionyl-9-dihydrodemycarosyltylosin [Example 6] | >100 | 1.56 | 0.2 | 1.56 | >100 | 
9 | 9-0-Benzoyl-9-dihydrodemycarosyltylosin [Example 8] | >100 | 1.56 | 0.2 | 1.56 | >100 | 
10 | 9-0-Butyryl-9-dihydrotylosin [Example 3] | 100 | 1.56 | <0.1 | 0.4 | 100 | 
